Data published in patent publication US20250236614A1, “BICYCLIC TETRAHYDROAZEPINE DERIVATIVES” (Hoffmann-La Roche Inc., priority 2022, published 2025).
Like-named read-outs stand apart in the source and are kept apart here.

Test system: primary human T-cells
Test: T-cell proliferation assay (CellTiter-Glo)
Format: cell-based
Conditions: isomer A; for EC50: CD3 antibody-stimulated T-cells, CellTiter-Glo after 5 days, read-out: Tcell Proliferation CD3 EC50; for Emax: read-out: Emax proliferation (% activation)
Description: Expanded primary human T-cells are thawed and cultured in RPMI 1640 (Gibco, #61870-010)+5% human serum (HS, Sigma, #H3667)+1 mM Sodium Pyruvate (Gibco, #11360-039)+50 μM 2-mercaptoethanol (Gibco, #31350-010) and 1× Pen-Strep (Life Technologies, #15140122) medium at density of 2 Mio/ml for 3 hours in 5% CO2, 37° C. and 95% humidity. For coating of plates, PBS++ only or PBS++ with CD3 antibody (concentration depending on donor and determined by CD3 titrations) is added 100 μl/well to Poly-D Lysine coated 96-well plates. Plates are sealed and incubated at room temperature for 3 hours on a table-top rocking platform. After incubation, plates are washed once with PBS−− and filled with 40 μl/well culture medium only. Compounds are then added (see next section) to medium only plates. After 3 hours of culturing the T-cells, cells are filtered through a cell strainer (Miltenyi Biotech, #130-041-407), counted again and concentration is adjusted to 1.25 Mio/ml.
Cells are then seeded 80 μl/well to the 40 μl/well including dispensed compounds according to plate layout. By adding cells, compounds are further diluted 1:3, and resulting in 100k cells/120 μl/well. After 48 hours 40 μl of supernatant is collected carefully from the top while not disturbing the cells. Cells are assessed for proliferation 5 days later by measuring […] using CellTiterGlo (Promega).
Compounds were added in a 5 or 6 pt dose response with the Tecan D300e Digital Dispenser, all conditions 3 times more concentrated than the end-concentration, since cells are added afterwards (80 μl cells to 40 μl prepared medium with treatment). The DR was starting at 20 μM or 10 μM final top concentration and a dilution factor of 3.333. The positive control was the reference compound A1 that was added in a dose response as well, additionally to 3 wells of only 20 μM representing the positive stimulator control. All wells were normalized with DMSO to a final concentration of 0.6% (0.2% end-concentration).
After 5 days, for detection of ATP which is directly proportional to the number of cells present per well, the CellTiter-Glo® 2.0 Reagent is used. After visual control for toxicity or precipitations of the tested compounds, the plates are equilibrated to room temperature for 45 minutes. CellTiter-Glo® 2.0 Reagent is equilibrated to room temperature as well. After equilibration, an equal amount of CellTiter-Glo reagent is added to the cells (80 μl/well) with an electronic multichannel pipette. Plates are placed on a rocking platform for 15 minutes at room temperature. After incubation, the bottom of the plates is sealed with backing tape. Luminescence is measured with PHERAstar FSX (interval time 0.5 sec, gain 3000, focal height 15 mm) and exported as CSV file for analysis in Genedata screener.
CD3 and PBS plates were analysed separately in Genedata Screener using Roche Normalization PCT_POS_CTRL with DMSO set as Neutral Control and 20 μM of the reference compound A1 set as Stimulator Control/100%.
For CD3 conditions EC50 and Emax of the fitted sigmoidal curve were reported. If no curve could be fitted, the EC50 was reported as blank field and the Emax was based on individual data points. […] Compounds which activate unstimulated cells (see IL2 measurements) or compounds which negatively affected viability were flagged.

[1] = Homo sapiens, T-cell, 120 h, CD3 condition, 5 days, 20 μM reference compound A1 = 100%, DMSO neutral control

Row | Compound | EC50 (Homo sapiens, T-cell, 120 h) [nM] | Emax [1] [%] | EC50 [nM] | Emax proliferation (% activation) (CD3 condition, 5 days, 20 μM reference compound A1 = 100%, DMSO neutral control)
1 | CC(C)(C#N)c1nnc(-c2cc3c(cc2F)C(F)(F)CC(N)C(=O)N3Cc2ccc(-n3cc(C(F)(F)F)cn3)cc2)o1 (racemic) [Example 33, 2-[5-[(3S)-3-amino-5,5,7-trifluoro-2-oxo-1-[[4-[4-(trifluoromethyl)pyrazol-1-yl]phenyl]methyl]-3,4-dihydro-1-benzazepin-8-yl]-1,3,4-oxadiazol-2-yl]-2-methyl-propanenitrile and 2-[5-[(3R)-3-amino-5,5,7-trifluoro-2-oxo-1-[[4-[4-(trifluoromethyl)pyrazol-1-yl]phenyl]methyl]-3,4-dihydro-1-benzazepin-8-yl]-1,3,4-oxadiazol-2-yl]-2-methyl-propanenitrile] | 98.8 | 128 |  | 
2 | CC(C)(C)c1nnc(-c2cc3c(cc2F)C(F)(F)C[C@@H](N)C(=O)N3Cc2ccc(OC3CCCC3)cc2)o1 (single isomer, unassigned) [Example 7] | 127 | 110 |  | 
3 | COc1ccc(-c2ccc(CN3C(=O)[C@H](N)CC(F)(F)c4cc(F)c(-c5nnc(C(C)(C)S(C)(=O)=O)o5)cc43)cc2)cc1 (single isomer, unassigned) [Example 10] | 377 | 76 |  | 
4 | CCN1CC(c2nnc(-c3cc4c(cc3F)C(F)(F)C[C@@H](N)C(=O)N4Cc3ccc(OC(F)(F)F)cc3)o2)CC(F)(F)C1 (single isomer, unassigned) [Example 13] | 77.7 | 79 |  | 
5 | N[C@@H]1CC(F)(F)c2cc(F)c(-c3nnc(N4CCC(F)(F)CC4)o3)cc2N(Cc2ccc(-c3noc(C(F)(F)F)n3)cc2)C1=O (single isomer, unassigned) [Example 15] | 127 | 108 |  | 
6 | CC(C)(C#N)c1nnc(-c2cc3c(cc2F)C(F)(F)C[C@@H](N)C(=O)N3Cc2ccc(-c3ncc(C(F)(F)F)cc3F)cc2)o1 (single isomer, unassigned) [Example 19] | 984 | 85 |  | 
7 | CC(C)(C#N)c1nnc(-c2cc3c(cc2F)C(F)(F)C[C@@H](N)C(=O)N3Cc2ccc(-n3nnc(C(F)(F)F)n3)cc2)o1 (single isomer, unassigned) [Example 20] | 205 | 118 |  | 
8 | N[C@@H]1CC(F)(F)c2cc(F)c(-c3nnc(N4CCCC4)o3)cc2N(Cc2ccc(-n3cnc(C(F)(F)F)n3)cc2)C1=O (single isomer, unassigned) [Example 21] | > 10000 | 43 |  | 
9 | N[C@@H]1CC(F)(F)c2cc(F)c(-c3nnc(N4CCC(F)(F)C4)o3)cc2N(Cc2ccc(-n3cnc(C(F)(F)F)n3)cc2)C1=O (single isomer, unassigned) [Example 22] | 2110 | 62 |  | 
10 | CC(C)(c1nnc(-c2cc3c(cc2F)C(F)(F)C[C@@H](N)C(=O)N3Cc2ccc(-n3cnc(C(F)(F)F)n3)cc2)o1)S(C)(=O)=O (single isomer, unassigned) [Example 23] | > 10000 | 98 |  | 
11 | CC(C)(C#N)c1nnc(-c2cc3c(cc2F)C(F)(F)C[C@@H](N)C(=O)N3Cc2ccc(-c3ccc(OC(F)(F)F)cn3)cc2)o1 (single isomer, unassigned) [Example 24] | 161 | 129 |  | 
12 | CC(C)(c1nnc(-c2cc3c(cc2F)C(F)(F)C[C@@H](N)C(=O)N3Cc2ccc(-c3ccc(OC(F)(F)F)cn3)cc2)o1)S(C)(=O)=O (single isomer, unassigned) [Example 26] | 950 | 155 |  | 
13 | CC(C)(C#N)c1nnc(-c2cc3c(cc2F)C(F)(F)C[C@@H](N)C(=O)N3Cc2ccc(-c3cc(C(F)(F)F)ccn3)cc2)o1 (single isomer, unassigned) [Example 27] | 598 | 79 |  | 
14 | CC(C)(C#N)c1nnc(-c2cc3c(cc2F)C(F)(F)C[C@@H](N)C(=O)N3Cc2ccc(-c3ccc(C(F)(F)F)cc3)nc2)o1 (single isomer, unassigned) [Example 28] | 978 | 96 |  | 
15 | CC(C)(c1nnc(-c2cc3c(cc2F)C(F)(F)C[C@@H](N)C(=O)N3Cc2ccc(-n3cc(C(F)(F)F)cn3)cc2)o1)S(C)(=O)=O (single isomer, unassigned) [Example 29] | 91.7 | 93 |  | 
16 | CC(C)(C#N)c1nnc(-c2cc3c(cc2F)C(F)(F)C[C@@H](N)C(=O)N3Cc2ccc(-n3ccc(C(F)(F)F)n3)cc2)o1 (single isomer, unassigned) [Example 30] | 589 | 94 |  | 
17 | CC(C)(c1nnc(-c2cc3c(cc2F)C(F)(F)C[C@@H](N)C(=O)N3Cc2ccc(-c3ccc(C(F)(F)F)cc3)cc2)o1)S(C)(=O)=O (single isomer, unassigned) [Example 32] | 2340 | 81 |  | 
18 | COCCN1CC(c2nnc(-c3cc4c(cc3F)C(F)(F)C[C@@H](N)C(=O)N4Cc3ccc(-c4ccc(C(F)(F)F)cn4)cc3)o2)CC(F)(F)C1 (single isomer, unassigned) [Example 34] | 1220 | 75 |  | 
19 | COC(=O)N1CC2CC(c3nnc(-c4cc5c(cc4F)C(F)(F)C[C@@H](N)C(=O)N5Cc4ccc(-c5ccc(C(F)(F)F)cn5)cc4)o3)(C2)C1 (single isomer, unassigned) [Example 35] | 124 | 128 |  | 
20 | COC(=O)N1CC2CC(c3nnc(-c4cc5c(cc4F)C(F)(F)C[C@@H](N)C(=O)N5Cc4ccc(Cl)cc4)o3)(C2)C1 (single isomer, unassigned) [Example 36] | 168 | 82 |  | 
21 | CC(F)(F)c1ccc(-c2ccc(CN3C(=O)[C@H](N)CC(F)(F)c4cc(F)c(-c5nnc(C(C)(C)C#N)o5)cc43)cc2)nc1 (single isomer, unassigned) [Example 37] | 215 | 138 |  | 
22 | COc1ccc(-c2ccc(CN3C(=O)[C@H](N)CC(F)(F)c4cc(F)c(-c5nnc(C(C)(C)C#N)o5)cc43)cc2)nc1 (single isomer, unassigned) [Example 38] | 1020 | 105 |  | 
23 | COc1ccc(-c2ccc(CN3C(=O)[C@H](N)CC(F)(F)c4cc(F)c(-c5nnc(C(C)(C)S(C)(=O)=O)o5)cc43)cc2)nc1 (single isomer, unassigned) [Example 39] | 1420 | 98 |  | 
24 | CC(C)(C#N)c1nnc(-c2cc3c(cc2F)C(F)(F)C[C@@H](N)C(=O)N3Cc2ccc(-c3ccc(C(F)F)cn3)cc2)o1 (single isomer, unassigned) [Example 40] | 655 | 99 |  | 
25 | COC(=O)N1CC2CC(c3nnc(-c4cc5c(cc4F)C(F)(F)CC(N)C(=O)N5Cc4ccc(-c5noc(C(F)(F)F)n5)cc4)o3)(C2)C1 (single isomer, unassigned) [Example 42] | 1260 | 117 |  | 
26 | CC(C)(C)c1nnc(-c2cc3c(cc2F)C(F)(F)CC(N)C(=O)N3Cc2ccc(OC(F)(F)F)cc2)o1 (stereo not drawn) [Example 1, 3-amino-8-(5-tert-butyl-1,3,4-oxadiazol-2-yl)-5,5,7-trifluoro-1-[[4-(trifluoromethoxy)phenyl]methyl]-3,4-dihydro-1-benzazepin-2-one] | 2590 | 74 |  | 
27 | (3S)-3-amino-5,5,7-trifluoro-8-(5-morpholino-1,3,4-oxadiazol-2-yl)-1-[[4-(trifluoromethoxy)phenyl]methyl]-3,4-dihydro-1-benzazepin-2-one and (3R)-3-amino-5,5,7-trifluoro-8-(5-morpholino-1,3,4-oxadiazol-2-yl)-1-[[4-(trifluoromethoxy)phenyl]methyl]-3,4-dihydro-1-benzazepin-2-one [Example 3] |  |  | 550 | 57
